The values below come from article PMC9607159, “High-Resolution Bioassay Profiling with Complemented Sensitivity and Resolution for Pancreatic Lipase Inhibitor Screening” (Molecules, 2022).

This assay has as its target T1, pancreatic lipase (PL) (Sus scrofa, UniProt P00591).
T1 construct: gene PNLIP
T1 sequence (P00591 1-450): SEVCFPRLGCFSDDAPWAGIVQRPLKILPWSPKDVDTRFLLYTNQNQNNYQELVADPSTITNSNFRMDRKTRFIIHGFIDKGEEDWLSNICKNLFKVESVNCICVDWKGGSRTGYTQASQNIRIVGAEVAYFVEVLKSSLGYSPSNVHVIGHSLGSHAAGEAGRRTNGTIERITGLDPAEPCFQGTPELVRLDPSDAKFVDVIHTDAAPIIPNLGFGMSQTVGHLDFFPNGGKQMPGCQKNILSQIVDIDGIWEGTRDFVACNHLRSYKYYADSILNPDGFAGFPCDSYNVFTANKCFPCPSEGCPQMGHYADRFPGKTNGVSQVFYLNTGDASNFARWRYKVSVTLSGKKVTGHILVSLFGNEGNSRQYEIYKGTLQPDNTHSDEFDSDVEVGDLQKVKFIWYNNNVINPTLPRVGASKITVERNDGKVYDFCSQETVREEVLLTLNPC
Briefly: fluorogenic 4-MUO lipase assay dose-response; also nanofractionation bioassay profiling and ligand fishing with PL magnetic beads. The assay is classed as biochemical.

SMILES strings stand for the structures. pIC50: −log10 of the molar value. Where two headings read alike, the source gives them in different places.

Take `O=C(O[C@@H]1Cc2c(O)cc(O)cc2O[C@@H]1c1cc(O)c(O)c(O)c1)c1cc(O)c(O)c(O)c1` [(-)-Epigallocatechin gallate]: where the note is “read-out: IC50”, the pIC50 (as a rule, −log10 of the IC50, conventionally taken in molar units) was 6.01.
`O=c1cc(-c2ccc(O)c(O)c2)oc2cc(O)cc(O)c12` [luteolin]: the pIC50 was 4.51.
